Where a name gives a salt, the structure may show the parent alone.

The experiment deals with T1, human IL-17AA (Homo sapiens, UniProt Q16552).
T1 construct: host or cells: HEK (human embryonic kidney) cells
T1 sequence (Q16552 24-155) 1: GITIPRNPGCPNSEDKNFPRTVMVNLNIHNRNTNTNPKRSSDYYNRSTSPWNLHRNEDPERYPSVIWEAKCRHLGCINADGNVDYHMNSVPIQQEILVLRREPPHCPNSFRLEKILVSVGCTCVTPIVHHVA
T1 sequence (Q16552 24-155) 2: T1 sequence (Q16552 24-155) 1
The experiment is described as follows: IL-8 release assay in human epithelial keratinocytes adult (HEKa). Format: cell-based. The following applies: 3 ng/ml human IL-17AA + 10 ng/ml human TNFalpha, 68-72 h, IL-8 by HTRF, read-out: Rel EC50 L-8 release assay. In a few lines:
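Adult human keratinocytes in Epilife with HKGS minus hydrocortisone, treated with compound then stimulated with final 3 ng/ml HEK-derived human IL-17AA plus 10 ng/ml TNF-alpha for 68–72 h at 37 °C; TNF-alpha alone defines 100% inhibition. Secreted IL-8 by HTRF; relative IC50 and Emax from four-parameter fits.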
In general terms: In TR-FRET formats the signal depends on donor and acceptor labels being close together.

Regarding `Cc1nccn1-c1ccc(NC(=O)[C@H](Cc2cc(-c3ccnc(C(O)C4CC4)c3)ccc2Cl)NC(=O)C2(F)CC2)cc1` (stereo partly drawn) [Example 126, N-[(1S)-1-[[2-chloro-5-[2-[cyclopropyl(hydroxy)methyl]-4-pyridyl]phenyl]methyl]-2-[4-(2-methylimidazol-1-yl)anilino]-2-oxo-ethyl]-1-fluoro-cyclopropanecarboxamide], the EC50 lay within 0.1 to 1 µM.

As to `COCOc1ccc(-c2ccc(Cl)c(CC(NC(=O)c3ccnn3C)C(=O)Nc3ccc(-c4nncn4C)cc3)c2)cc1C(=O)N(C)C` (centres unmarked) [Example 155, N-[1-[[2-chloro-5-[3-(dimethylcarbamoyl)-4-(methoxymethoxy)phenyl]phenyl]methyl]-2-[4-(4-methyl-1,2,4-triazol-3-yl)anilino]-2-oxo-ethyl]-2-methyl-pyrazole-3-carboxamide], the half-maximal effective concentration (EC50) was greater than 1 µM.

In the case of `Cc1nn(C)c(C)c1-c1ccc(NC(=O)[C@@H](NC(=O)C2(F)CC2)[C@@H]2CCc3ccc(-c4ccnc(N5C[C@@H]6C[C@H]5CO6)c4)cc32)cc1` [Example 371, 1-fluoro-N-[(1S)-1-[(1R)-6-[2-[(1S,4S)-2-oxa-5-azabicyclo[2.2.1]heptan-5-yl]-4-pyridyl]indan-1-yl]-2-oxo-2-[4-(1,3,5-trimethylpyrazol-4-yl)anilino]ethyl] cyclopropanecarboxamide], the EC50 is less than 0.1 µM.

“N-[1-[[2-chloro-5-(1-(l-6-oxo-3- pyridyl)phenyl]methyl]-2-[4-(3-chloro- 1H-pyrazol-4-yl)anilino]-2-oxo-ethyl]-2- methyl-pyrazole-3-carboxamide [Example 180]”: the EC50 lay within 0.1 to 1 µM.

Take `Cc1n[nH]c(C)c1-c1ccc(NC(=O)[C@@H](NC(=O)c2ccnn2C)[C@@H]2CCc3ccc(-c4cnn(C(C)(C)C)c4)cc32)cc1` [Example 4, N-[(1S)-1-[(1R)-6-(1-tert-butylpyrazol-4-yl)indan-1-yl]-2-[4-(3,5-dimethyl-1H-pyrazol-4-yl)anilino]-2-oxo-ethyl]-2-methyl-pyrazole-3-carboxamide]: the EC50 was less than 0.1 µM.

For the compound `CC(C)Cn1cc(-c2ccc(Cl)c(C[C@H](NC(=O)c3ccnn3C)C(=O)Nc3ccc(-c4cncn4C)cc3)c2)nn1` [Example 212, N-[(1S)-1-[[2-chloro-5-(1-isobutyltriazol-4-yl)phenyl]methyl]-2-[4-(3-methylimidazol-4-yl)anilino]-2-oxo-ethyl]-2-methyl-pyrazole-3-carboxamide], the EC50 is 0.1 to 1 µM.

Regarding `Cc1n[nH]c(C)c1-c1ccc(NC(=O)[C@@H](NC(=O)C2(F)CC2)[C@@H]2CCCc3ccc(-c4ccnc(N5C[C@@H]6C[C@H]5CO6)c4)cc32)cc1` [Example 29, N-[(1S)-2-[4-(3,5-dimethyl-1H-pyrazol-4-yl)anilino]-1-[(1R)-7-[2-[(1S,4S)-2-oxa-5-azabicyclo[2.2.1]heptan-5-yl]-4-pyridyl]tetralin-1-yl]-2-oxo-ethyl]-1-fluoro-cyclopropanecarboxamide], the EC50 is less than 0.1 µM.

`Cc1n[nH]c(C)c1-c1ccc(NC(=O)[C@H](Cc2cc(-c3ccnc(N4CC5COCC5C4)n3)ccc2Cl)NC(=O)C2(F)CC2)cc1` (stereo partly drawn) [Example 318, N-[(1S)-1-[[5-[2-(1,3,3a,4,6,6a-hexahydrofuro[3,4-c]pyrrol-5-yl)pyrimidin-4-yl]-2-chloro-phenyl]methyl]-2-[4-(3,5-dimethyl-1H-pyrazol-4-yl)anilino]-2-oxo-ethyl]-1-fluoro-cyclopropanecarboxamide]: the EC50 was less than 0.1 µM.

For the compound `Cn1cnnc1-c1ccc(NC(=O)C(Cc2cc(-c3cccc(OC(F)F)c3)ccc2Cl)NC(=O)c2ccnn2C)cc1` (centres unmarked) [Example 112, N-[1-[[2-chloro-5-[3-(difluoromethoxy)phenyl]phenyl]methyl]-2-[4-(4-methyl-1,2,4-triazol-3-yl)anilino]-2-oxo-ethyl]-2-methyl-pyrazole-3-carboxamide], the EC50 was in the range of 0.1 to 1 µM.

On to `CCCCn1cc(-c2ccc(Cl)c(C[C@H](NC(=O)c3ccnn3C)C(=O)Nc3ccc(-c4cncn4C)cc3)c2)cn1` [Example 171], for which the EC50 lay within 0.1 to 1 µM.

Take `Cc1n[nH]c(C)c1-c1ccc(NC(=O)[C@H](Cc2cc(-c3ccc(CN4C[C@@H]5C[C@H]4CN5)cc3)ccc2Cl)NC(=O)C2(F)CC2)cc1` [Example 229, N-[(1S)-1-[[2-chloro-5-[4-[[(1S,4S)-2,5-diazabicyclo[2.2.1]heptan-2-yl]methyl]phenyl]phenyl]methyl]-2-[4-(3,5-dimethyl-1H-pyrazol-4-yl)anilino]-2-oxo-ethyl]-1-fluoro-cyclopropanecarboxamide]: the EC50 fell in the range of 0.1 to 1 µM.

For the compound `Cc1cnn(C)c1-c1ccc(NC(=O)[C@@H](NC(=O)C2(F)CC2)[C@@H](c2cccc(-c3cc(N4C[C@@H]5C[C@H]4CO5)ncn3)c2)C2CC2)cc1` [Example 352, N-[(1S)-1-[(R)-cyclopropyl-[3-[6-[(1S,4S)-2-oxa-5-azabicyclo[2.2.1]heptan-5-yl]pyrimidin-4-yl]phenyl]methyl]-2-[4-(2,4-dimethylpyrazol-3-yl)anilino]-2-oxo-ethyl]-1-fluoro-cyclopropanecarboxamide], the EC50 was in the range of 0.1 to 1 µM.

For `Cn1cncc1-c1ccc(NC(=O)C(Cc2cc(-c3ccnc(N4CCC4CO)c3)ccc2Cl)NC(=O)c2ccnn2C)cc1` (centres unmarked) [Example 187, N-[1-[[2-chloro-5-[2-[2-(hydroxymethyl)azetidin-1-yl]-4-pyridyl]phenyl]methyl]-2-[4-(3-methylimidazol-4-yl)anilino]-2-oxo-ethyl]-2-methyl-pyrazole-3-carboxamide], the EC50 fell in the range of 0.1 to 1 µM.

Regarding `Cc1nocc1C(=O)NC(Cc1cc(-c2cccc(C(=O)N(C)C3CC3)c2)ccc1Cl)C(=O)Nc1ccc(-c2nncn2C)cc1` (centres unmarked) [Example 107, N-[1-[[2-chloro-5-[3-[cyclopropyl(methyl)carbamoyl]phenyl]phenyl]methyl]-2-[4-(4-methyl-1,2,4-triazol-3-yl)anilino]-2-oxo-ethyl]-3-methyl-isoxazole-4-carboxamide], the EC50 is 0.1 to 1 µM.

For the compound `Cn1cncc1-c1ccc(NC(=O)[C@H](Cc2cc(-c3ccnc(C(C)(O)C4CC4)c3)ccc2Cl)NC(=O)C2(F)CC2)cc1` (stereo partly drawn) [Example 142, N-[(1S)-1-[[2-chloro-5-[2-(1-cyclopropyl-1-hydroxy-ethyl)-4-pyridyl]phenyl]methyl]-2-[4-(3-methylimidazol-4-yl)anilino]-2-oxo-ethyl]-1-fluoro-cyclopropanecarboxamide], the EC50 was less than 0.1 µM.

`Cc1n[nH]c(C)c1-c1ccc(NC(=O)[C@@H](NC(=O)c2ccnn2C)[C@@H]2CCCc3ccc(-c4cccc(CN5CCC5)c4)cc32)cc1` [Example 388, N-[(1S)-1-[(1R)-7-[3-(azetidin-1-ylmethyl)phenyl]tetralin-1-yl]-2-[4-(3,5-dimethyl-1H-pyrazol-4-yl)anilino]-2-oxo-ethyl]-2-methyl-pyrazole-3-carboxamide]: the concentration giving a half-maximal response (EC50) is less than 0.1 µM.

`Cc1n[nH]c(C)c1-c1ccc(NC(=O)[C@@H](NC(=O)c2ccnn2C)[C@@H]2CCc3ccc(-c4cnn(C(C)(C)CO)c4)cc32)cc1` [Example 11, N-[(1S)-2-[4-(3,5-dimethyl-1H-pyrazol-4-yl)anilino]-1-[(1R)-6-[1-(2-hydroxy-1,1-dimethyl-ethyl]pyrazol-4-yl]indan-1-yl]-2-oxo-ethyl]-2-methyl-pyrazole-3-carboxamide]: the EC50 is less than 0.1 µM.

As for `CC(C)c1cc(-c2ccc(Cl)c(CC(NC(=O)c3ccnn3C)C(=O)Nc3ccc(-c4nncn4C)cc3)c2)ccn1` (centres unmarked) [Example 75, N-[1-[[2-chloro-5-(2-isopropyl-4-pyridyl)phenyl]methyl]-2-[4-(4-methyl-1,2,4-triazol-3-yl)anilino]-2-oxo-ethyl]-2-methyl-pyrazole-3-carboxamide], the EC50 was greater than 1 µM.

Take `Cn1cncc1-c1ccc(NC(=O)[C@H](Cc2cc(-c3cccc(C4CNCCO4)c3)ccc2Cl)NC(=O)c2ccnn2C)cc1` (stereo partly drawn) [Example 219, N-[(1S)-1-[[2-chloro-5-(3-morpholin-2-ylphenyl)phenyl]methyl]-2-[4-(3-methylimidazol-4-yl)anilino]-2-oxo-ethyl]-2-methyl-pyrazole-3-carboxamide hydrochloride]: the EC50 lay within 0.1 to 1 µM.

In the case of `Cc1n[nH]c(C)c1-c1ccc(NC(=O)[C@@H](NC(=O)c2ccnn2C)[C@@H]2CCc3ccc(-c4ccc5c(c4)CNC5)cc32)cc1` [Example 1, N-[(1S)-2-[4-(3,5-dimethyl-1H-pyrazol-4-yl)anilino]-1-[(1R)-6-isoindolin-5-ylindan-1-yl]-2-oxo-ethyl]-2-methyl-pyrazole-3-carboxamide], the concentration for a half-maximal effect (EC50) is less than 0.1 µM.

Regarding `Cc1cnn(C)c1-c1ccc(NC(=O)[C@H](Cc2cc(-c3ccc(=O)n(C(C)C)c3)ccc2Cl)NC(=O)C2(F)CC2)cc1` [Example 119, N-[(1S)-1-[[2-chloro-5-(1-isopropyl-6-oxo-3-pyridyl)phenyl]methyl]-2-[4-(2,4-dimethylpyrazol-3-yl)anilino]-2-oxo-ethyl]-1-fluoro-cyclopropanecarboxamide], the EC50 fell in the range of 0.1 to 1 µM.

Take `CN1CCN(c2cc(-c3ccc(Cl)c(C[C@H](NC(=O)c4ccnn4C)C(=O)Nc4ccc(-c5cncn5C)cc4)c3)ccn2)CC1` [Example 206, N-[(1S)-1-[[2-chloro-5-[2-(4-methylpiperazin-1-yl)-4-pyridyl]phenyl]methyl]-2-[4-(3-methylimidazol-4-yl)anilino]-2-oxo-ethyl]-2-methyl-pyrazole-3-carboxamide]: the EC50 was 0.1 to 1 µM.

For the compound `Cc1n[nH]c(C)c1-c1ccc(NC(=O)[C@H](Cc2cc(-c3ccnn3C3CCC3)ccc2Cl)NC(=O)C2(F)CC2)cc1` [Example 226, N-[(1S)-1-[[2-chloro-5-(2-cyclobutylpyrazol-3-yl)phenyl]methyl]-2-[4-(3,5-dimethyl-1H-pyrazol-4-yl)anilino]-2-oxo-ethyl]-1-fluoro-cyclopropanecarboxamide], the EC50 lay in the range of 0.1 to 1 µM.

Usually EC50 stands for the concentration at which the effect is half-maximal.

Source of the values: patent US20220162191A1, “SMALL MOLECULE MODULATORS OF IL-17” (LEO PHARMA A/S, priority 2019, published 2022).
